Test results taken from patent US9226500B2, “Pesticidal compositions and processes related thereto” (Dow AgroSciences LLC, priority 2012, dated 2016).

Tested on: Beet Armyworm (Spodoptera exigua)
Test: Bioassay on Beet Armyworm (BAW), 128-well diet tray assay
Format: in vivo
Settings: Table 3, Assays Results Part 1
Procedure: Certain molecules disclosed in this document were tested against BAW, CEW and CL using procedures described in the following examples. In the reporting of the results, the “BAW & CEW & CL Rating Table” was used (See Table Section).
Bioassays on BAW (Spodoptera exigua)
Bioassays on BAW were conducted using a 128-well diet tray assay. One to five second instar BAW larvae were placed in each well (3 mL) of the diet tray that had been previously filled with 1 mL of artificial diet to which 50 μg/cm^2 of the test compound (dissolved in 50 μL of 90:10 acetone-water mixture) had been applied (to each of eight wells) and then allowed to dry. Trays were covered with a clear self-adhesive cover, and held at 25° C., 14:10 light-dark for five to seven days. Percent mortality was recorded for the larvae in each well; activity in the eight wells was then averaged. The results are indicated in the tables entitled “Table 3: Assay Results Part 1” and “Table 4: Assay Results Part 2” (See Table Section).

Row | Compound | BAW Rating
1 | O=C(C1CC1)N(Cc1ccccn1)Cc1ccc(/C=C/C(c2cc(Cl)c(Cl)c(Cl)c2)C(F)(F)F)cc1C(F)(F)F (stereo not drawn) [CC29, (E)-N-(Pyridin-2-ylmethyl)-N-(4-(4,4,4-trifluoro-3-(3,4,5-trichlorophenyl)but-1-enyl)-2-(trifluoromethyl)benzyl)cyclopropanecarboxamide] | A (50-100)
2 | Cc1cc(/C=C/C(c2cc(Cl)cc(Cl)c2)C(F)(F)F)ccc1C(=O)NC1CS(=O)(=O)C1 (stereo not drawn) [AC13] | A (50-100)
3 | FC(F)(F)C(/C=C/c1ccc(-n2cncn2)cc1Cl)c1cc(Cl)cc(Cl)c1 (stereo not drawn) [DC67] | A (50-100)
4 | CC(=O)NCc1ccc(/C=C/C(c2cc(Cl)cc(Cl)c2)C(F)(F)F)cc1Cl (stereo not drawn) [CC7, (E)-N-(2-Chloro-4-(3-(3,5-dichlorophenyl)-4,4,4-trifluorobut-1-en-1-yl)benzyl)acetamide] | A (50-100)
5 | COC(/C=C/c1ccc(-n2cncn2)cc1)(c1cc(Cl)cc(Cl)c1)C(F)(F)F (stereo not drawn) [DC70, (E)-1-(4-(3-(3,5-Dichlorophenyl)-4,4,4-trifluoro-3-methoxybut-1-en-1-yl)phenyl)-1H-1,2,4-triazole] | A (50-100)
6 | O=C(NCc1ccc(C(F)(F)F)nc1)c1ccc(/C=C/C(c2cc(Cl)c(Cl)c(Cl)c2)C(F)(F)F)cc1Br (stereo not drawn) [AC75] | A (50-100)
7 | O=C(NCc1ccc(/C=C/C(c2cc(Cl)c(Cl)c(Cl)c2)C(F)(F)F)cc1Cl)C1CC1 (stereo not drawn) [CC11] | A (50-100)
8 | O=C(CC(F)(F)F)NCc1ccc(/C=C/C(c2cc(Cl)cc(Cl)c2)C(F)(F)F)cc1 (stereo not drawn) [CC3] | A (50-100)
9 | Cc1cc(/C=C/C(c2cc(Cl)cc(Cl)c2)C(F)(F)F)cc(C#N)c1-n1cncn1 (stereo not drawn) [DC44] | A (50-100)
10 | Cc1cc(/C=C/C(c2cc(Cl)c(Cl)c(Cl)c2)C(F)(F)F)ccc1C(=O)NCC(=O)NCC(F)(F)F (stereo not drawn) [AC78] | A (50-100)
11 | CCNC(=O)NCc1ccc(/C=C/C(c2cc(Cl)c(Cl)c(Cl)c2)C(F)(F)F)cc1C(F)(F)F (stereo not drawn) [CC32] | A (50-100)
12 | Cc1cc(/C=C/C(c2cc(Cl)cc(Cl)c2)C(F)(F)F)ccc1C(=O)NC1CSC1 (stereo not drawn) [AC10] | A (50-100)
13 | Cc1cc(/C=C/C(c2cc(Cl)cc(Cl)c2)C(F)(F)F)ccc1C(=O)Nc1ccc(Cl)nc1 (stereo not drawn) [AC59] | A (50-100)
14 | Cc1cc(/C=C/C(c2cc(Cl)cc(Cl)c2)C(F)(F)F)ccc1C(=S)NCc1ccc(Cl)nc1 (stereo not drawn) [AC115, (E)-N-((6-Chloropyridin-3-yl)methyl)-4-(3-(3,5-dichlorophenyl)-4,4,4-trifluorobut-1-en-1-yl)-2-methylbenzothioamide] | A (50-100)
15 | N#CCN1CCC(NC(=O)c2ccc(/C=C/C(c3cc(Cl)c(Cl)c(Cl)c3)C(F)(F)F)cc2Br)CC1 (stereo not drawn) [AC107] | B (More than 0-Less than 50)
16 | O=C(NC1CCc2cc(/C=C/C(c3cc(Cl)c(Cl)c(Cl)c3)C(F)(F)F)ccc21)C1CC1 (stereo not drawn) [BC6] | A (50-100)
17 | Cc1cc(C)cc(C(/C=C/c2ccc(-n3cncn3)cc2)C(F)(F)F)c1 (stereo not drawn) [DC11] | A (50-100)
18 | O=C(NC1CSC1)c1ccc(/C=C/C(c2cc(Cl)c(Cl)c(Cl)c2)C(F)(F)F)cc1C(F)(F)F (stereo not drawn) [AC34] | A (50-100)
19 | Fc1cc(/C=C/C(c2cc(Cl)cc(Cl)c2)C(F)(F)F)ccc1-n1cncn1 (stereo not drawn) [DC48] | A (50-100)
20 | Cc1cc(/C=C/C(c2cc(Cl)cc(Cl)c2)C(F)(F)F)ccc1C(=O)NCc1ccoc1 (stereo not drawn) [AC20] | A (50-100)
21 | FC(F)(F)c1cc(/C=C/C(c2cc(Cl)cc(Cl)c2)C(F)(F)F)ccc1-n1cncn1 (stereo not drawn) [DC51] | A (50-100)
22 | O=C(NC1CS(=O)(=O)C1)c1ccc(/C=C/C(c2cc(Cl)c(Cl)c(Cl)c2)C(F)(F)F)cc1Br (stereo not drawn) [AC33] | A (50-100)
23 | N#Cc1cc(/C=C/C(c2cc(Cl)c(F)c(Cl)c2)C(F)(F)F)ccc1-n1cncn1 (stereo not drawn) [DC35] | A (50-100)

Row | Compound | BAW Rating
24 | FC(F)(F)c1cc(C(/C=C/c2ccc(-n3cncn3)cc2)C(F)(F)F)cc(C(F)(F)F)c1 (stereo not drawn) [DC16] | A (50-100)
25 | O=C(NCc1ccc(/C=C/C(c2cc(Cl)c(Cl)c(Cl)c2)C(F)(F)F)cc1)C1CC1 (stereo not drawn) [CC5] | A (50-100)
26 | COc1cc(/C=C/C(c2cc(Cl)c(F)c(Cl)c2)C(F)(F)F)ccc1C(=O)NC1CSC1 (stereo not drawn) [AC71] | A (50-100)
27 | O=C(CNC(=O)c1ccc(/C=C/C(c2cc(Cl)cc(Cl)c2)C(F)(F)F)cc1F)NCC(F)(F)F (stereo not drawn) [AC62] | A (50-100)
28 | Cc1cc(/C=C/C(c2cc(Cl)cc(Cl)c2)C(F)(F)F)ccc1C(=O)NCc1ccccn1 (stereo not drawn) [AC12] | A (50-100)
29 | N#Cc1cc(/C=C/C(c2cc(Cl)cc(Cl)c2)C(F)(F)F)ccc1-n1cnc([N+](=O)[O-])n1 (stereo not drawn) [DC37] | A (50-100)
30 | O=C(CC(F)(F)F)NCc1ccc(/C=C/C(c2cc(Cl)c(Cl)c(Cl)c2)C(F)(F)F)cc1Br (stereo not drawn) [CC25] | A (50-100)
31 | Cc1cc(/C=C/C(c2cc(Cl)cc(Cl)c2)C(F)(F)F)ccc1C(=O)NCC(=O)N(C)CC(F)(F)F (stereo not drawn) [AC51] | A (50-100)
32 | FC(F)(F)C(/C=C/c1ccc(-n2cncn2)c(Br)c1)c1cc(Cl)cc(Cl)c1 (stereo not drawn) [DC47] | A (50-100)
33 | O=C(NCc1ccc(Cl)nc1)c1ccc(/C=C/C(c2cc(Cl)cc(Cl)c2)C(F)(F)F)cc1F (stereo not drawn) [AC49] | A (50-100)
34 | N#Cc1cc(/C=C/C(c2cc(Cl)c(Cl)c(Cl)c2)C(F)(F)F)ccc1-n1cnc(N(C(=O)C2CC2)C(=O)C2CC2)n1 (stereo not drawn) [DC42, (E)-N-(1-(2-Cyano-4-(4,4,4-trifluoro-3-(3,4,5-trichlorophenyl)but-1-en-1-yl)phenyl)-1H-1,2,4-triazol-3-yl)-N-(cyclopropanecarbonyl)cyclopropanecarboxamide] | A (50-100)
35 | Cc1cc(/C=C/C(c2cc(Cl)c(Cl)c(Cl)c2)C(F)(F)F)ccc1C(=O)NC1CSC1 (stereo not drawn) [AC23] | A (50-100)
36 | O=C(CNC(=S)c1ccc(/C=C/C(c2cc(Cl)c(Cl)c(Cl)c2)C(F)(F)F)cc1Br)NCC(F)(F)F (stereo not drawn) [AC91, (E)-2-(2-Bromo-4-(4,4,4-trifluoro-3-(3,4,5-trichlorophenyl)but-1-en-1-yl)phenylthioamido)-N-(2,2,2-trifluoroethyl)acetamide] | A (50-100)
37 | Cc1cc(/C=C/C(c2cc(Cl)c(F)c(Cl)c2)C(F)(F)F)ccc1C(=O)NC1CCOCC1 (stereo not drawn) [AC52] | A (50-100)
38 | O=C(NCc1ccc(/C=C/C(c2cc(Cl)c(Cl)c(Cl)c2)C(F)(F)F)cc1Cl)N1CCOCC1 (stereo not drawn) [CC34] | A (50-100)
39 | O=C(CC(F)(F)F)NC1CCCc2cc(/C=C/C(c3cc(Cl)c(Cl)c(Cl)c3)C(F)(F)F)ccc21 (stereo not drawn) [BC5] | A (50-100)
40 | CCc1cc(/C=C/C(c2cc(Cl)c(F)c(Cl)c2)C(F)(F)F)ccc1C(=O)NC1CS(=O)(=O)C1 (stereo not drawn) [AC86] | A (50-100)
41 | Cc1cc(/C=C/C(c2cc(Cl)cc(Cl)c2)C(F)(F)F)ccc1C(=O)NCc1nccn1C (stereo not drawn) [AC50] | A (50-100)
42 | O=C(NC1C[S+]([O-])C1)c1ccc(/C=C/C(c2cc(Cl)c(F)c(Cl)c2)C(F)(F)F)cc1F (stereo not drawn) [AC87] | A (50-100)
43 | O=C(CC(F)(F)F)NCc1ccc(/C=C/C(c2cc(Cl)c(Cl)c(Cl)c2)C(F)(F)F)cc1 (stereo not drawn) [CC6] | A (50-100)
44 | CCNC(=O)NCc1ccc(/C=C/C(c2cc(Cl)c(Cl)c(Cl)c2)C(F)(F)F)cc1Br (stereo not drawn) [CC33] | A (50-100)
45 | Cc1cc(/C=C/C(c2cc(Cl)cc(Cl)c2)C(F)(F)F)ccc1C(=O)NNc1ccccc1F (stereo not drawn) [AC17] | A (50-100)
